Reference: patent publication US20250017936A1, “CELL-POTENT BISUBSTRATE INHIBITORS FOR NICOTINAMIDE N-[…] (NNMT) AND USES THEREOF” (priority 2021, published 2025)
Where two headings read alike, the source gives them in different places.

How the values were obtained:
NNMT [1] = target: T1, NNMT (Homo sapiens (Human), UniProt P40261); assay: biochemical; assay type: biochemical
NNMT [2] = target: T1, NNMT; assay: Fluorescence polarization (FP)-based competition assay with probe II138; assay type: binding; conditions: read-out: Ki (FP Assay)
[3] = SAHH-coupled Assay IC50, 10 μM SAM, 10 μM nicotinamide (Km), 0.1 μM NNMT

T1 sequence (P40261 whole entry): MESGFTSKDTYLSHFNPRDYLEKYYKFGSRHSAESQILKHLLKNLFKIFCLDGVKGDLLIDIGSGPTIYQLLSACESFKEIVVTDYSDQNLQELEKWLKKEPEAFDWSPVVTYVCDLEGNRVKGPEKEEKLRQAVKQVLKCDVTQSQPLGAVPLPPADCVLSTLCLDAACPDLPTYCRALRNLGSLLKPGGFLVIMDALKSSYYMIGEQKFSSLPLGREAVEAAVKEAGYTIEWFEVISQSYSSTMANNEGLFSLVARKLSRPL

For `CCN(CC#Cc1cccc(C(N)=O)c1)C[C@H]1C[C@@H](n2ccc3c(Cl)ncnc32)[C@H](O)[C@@H]1O` [II542, 3-(3-((((1R,2R,3S,4R)-4-(4-chloro-7H-pyrrolo[2,3-d]pyrimidin-7-yl)-2,3dihydroxycyclopentyl)methyl)(ethyl)amino)prop-1-yn-1-yl)benzamide], the IC50 (NNMT [1]; [3]) was 7700 nM.
For `CC(=O)N(CC#Cc1cccc(C(N)=O)c1)C[C@H]1C[C@@H](n2ccc3c(N)ncnc32)[C@H](O)[C@@H]1O` [II642, 3-(3-(N-(((1R,2R,3S,4R)-4-(4-amino-7H-pyrrolo[2,3-d]pyrimidin-7-yl)-2,3-dihydroxycyclopentyl)methyl)acetamido)prop-1-yn-1-yl) benzamide], the Ki (NNMT [2]) was 70 ± 8 nM, the IC50 (NNMT [1]; 10 μM SAM, 10 μM nicotinamide (Km), 0.1 μM NNMT, read-out: SAHH-coupled Assay IC50) was 25 ± 7 nM and the IC50 (NNMT [1]; 10 μM SAM, 10 μM nicotinamide (Km), 0.1 μM NNMT, read-out: SAHH-coupled assay IC50) was 25 ± 7 nM. The Ki (NNMT [1]; read-out: Ki, app) was 4 ± 0.02 nM and the IC50 (NNMT [1]; substrate and SAM concentration at 4 Km, read-out: SAHH-coupled Assay IC50) was 93 ± 7 nM.
`CC(=O)N(CC#Cc1cccc(C(N)=O)c1)C[C@H]1O[C@@H](n2cnc3c(N)ncnc32)[C@H](O)[C@@H]1O` [II661, 3-(3-(N-(((2R,3S,4R,5R)-5-(6-amino-9H-purin-9-yl)-3,4-dihydroxytetrahydrofuran-2-yl)methyl)acetamido)prop-1-yn-1-yl)benzamide] showed an IC50 (NNMT [1]; [3]) of 7600 nM.
